Values of other authors as cited in patent US20140296155A1, “ANTI-STRETCH MARK SKIN CREAM AND METHOD FOR MAKING AND USING THEREOF” (priority 2011, published 2014).

Tested on: Type 1 and Type 3 collagen

O=C1O[C@H]([C@@H](O)CO)C(O)=C1O [Vitamin C, Ascorbic Acid]
collagen formation over control levels: 3-4 fold
